Where two headings read alike, the source gives them in different places.
Assays:
[1] = tested on: 60 cancer cell lines (NCI 60 cancer cell line series); assay: NCI-DTP in vitro cancer screen, sulforhodamine B (SRB) growth inhibition, 48 hour exposure; assay type: cell-based, human
Summary of the method: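 NCI-DTP panel of 60 cancer cell lines plated day 0 at line-specific densities, exposed from day 1 to compound at 5 ten-fold-spaced doses in duplicate wells. After 48 h, cell mass stained with sulforhodamine B; −log GI50 derived from dose–response curves, averaged, and classed Low, Medium or High sensitivity.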

[2] = tested on: 60 cancer cell lines (NCI 60 cancer cell line series); conditions: cited from earlier work

Q: Which results are given for `CC(=O)O[C@H]1C(=O)[C@@]2(C)[C@H]([C@H](OC(=O)c3ccccc3)[C@]3(O)C[C@H](OC(=O)[C@H](O)[C@@H](NC(=O)c4ccccc4)c4ccccc4)C(C)=C1C3(C)C)[C@]1(OC(C)=O)CO[C@@H]1C[C@@H]2O` [TAXOL, paclitaxel, reference compound]?
A: classification of cell line as Low(1), Medium(2), High(3) sensitivity to compound ([1]; Breast BT-549 CL5013): 2; classification of cell line as Low(1), Medium(2), High(3) sensitivity to compound ([1]; Breast MCF7/ADRr CL5002): 1; classification of cell line as Low(1), Medium(2), High(3) sensitivity to compound ([1]; Breast MDA-MB-231 CL5005): 2; classification of cell line as Low(1), Medium(2), High(3) sensitivity to compound ([1]; Breast MDA-MB-435 CL5011): 3; classification of cell line as Low(1), Medium(2), High(3) sensitivity to compound ([1]; Breast MDA-N CL5012): 3; classification of cell line as Low(1), Medium(2), High(3) sensitivity to compound ([1]; CNS SF-268 CL12014): 2; classification of cell line as Low(1), Medium(2), High(3) sensitivity to compound ([1]; CNS SF-295 CL12015): 2; classification of cell line as Low(1), Medium(2), High(3) sensitivity to compound ([1]; CNS SF-539 CL12016): 2; classification of cell line as Low(1), Medium(2), High(3) sensitivity to compound ([1]; CNS SNB-19 CL12002): 2; classification of cell line as Low(1), Medium(2), High(3) sensitivity to compound ([1]; CNS U251(I) CL12009): 2; classification of cell line as Low(1), Medium(2), High(3) sensitivity to compound ([1]; Colon HCT-15 CL4015): 1; classification of cell line as Low(1), Medium(2), High(3) sensitivity to compound ([1]; Colon HCT-116 CL4003): 3; classification of cell line as Low(1), Medium(2), High(3) sensitivity to compound ([1]; Colon HT29(I) CL4001): 3; classification of cell line as Low(1), Medium(2), High(3) sensitivity to compound ([1]; Colon KM12 CL4017): 2; classification of cell line as Low(1), Medium(2), High(3) sensitivity to compound ([1]; Leukemia MOLT-4 CL7006): 2; classification of cell line as Low(1), Medium(2), High(3) sensitivity to compound ([1]; Leukemia RPMI-8226(I) CL7010): 3; classification of cell line as Low(1), Medium(2), High(3) sensitivity to compound ([1]; Melanoma M14 CL10014): 2; sensitivity classification Low(1)/Medium(2)/High(3) ([1]; NSCLC NCI-H23(I) CL1001): 2; sensitivity classification Low(1)/Medium(2)/High(3) ([1]; NSCLC NCI-H332M CL1017): 2; sensitivity classification Low(1)/Medium(2)/High(3) ([1]; Ovarian IGROV1 CL6010): 2; sensitivity classification Low(1)/Medium(2)/High(3) ([1]; Ovarian OVCAR-4 CL6002): 1; sensitivity classification Low(1)/Medium(2)/High(3) ([1]; Ovarian OVCAR-8 CL6005): 2; sensitivity classification Low(1)/Medium(2)/High(3) ([1]; Ovarian SK-OV-3 CL6011): 2; sensitivity classification Low(1)/Medium(2)/High(3) ([1]; Prostate DU-145 CL11003): 2; sensitivity classification Low(1)/Medium(2)/High(3) ([1]; Prostate PC-3(I) CL11001): 2; sensitivity classification Low(1)/Medium(2)/High(3) ([1]; Renal 786-0 CL9018): 2; sensitivity classification Low(1)/Medium(2)/High(3) ([1]; Renal ACHN CL9023): 1; sensitivity classification Low(1)/Medium(2)/High(3) ([1]; Renal CAKI-1 CL9015): 1; sensitivity classification Low(1)/Medium(2)/High(3) ([1]; Renal RXF-393 CL9016): 2; sensitivity classification Low(1)/Medium(2)/High(3) ([1]; Renal SN12C CL9008): 2; sensitivity classification Low(1)/Medium(2)/High(3) ([1]; Renal UO-31 CL9004): 1; −Log (GI50) ([2]; Breast MCF7/ADRr CL5002): 5.5; −Log (GI50) ([2]; Colon COLO-250 CL4010): 8.0; −Log (GI50) ([2]; Melanoma SK-MEL-5 CL10007): 6.3; −Log (GI50) ([2]; Melanoma UACC-62 CL10020): 8.1; −Log (GI50) ([2]; Melanoma UACC-257 CL10021): 7.1; −Log (GI50) ([2]; NSCLC A549/ATCC CL1004): 8.0; −Log (GI50) ([2]; NSCLC EKVX CL1008): 4.8; −Log (GI50) ([2]; NSCLC HOP-62 CL1026): 7.4; −Log (GI50) ([2]; NSCLC HOP-92 CL1029): 5.7; −Log (GI50) ([2]; Ovarian OVCAR-5 CL6003): 6.8

Q: Which results are given for `COc1cccc2c1C(=O)c1c(O)c3c(c(O)c1C2=O)C[C@@](O)(C(=O)CO)C[C@@H]3OC1CC(N)CC(C)O1.Cl` (stereo partly shown) [Deoxydoxorubicin]?
A: classification of cell line as Low(1), Medium(2), High(3) sensitivity to compound ([1]; Breast BT-549 CL5013): 2; classification of cell line as Low(1), Medium(2), High(3) sensitivity to compound ([1]; Breast MCF7/ADRr CL5002): 1; classification of cell line as Low(1), Medium(2), High(3) sensitivity to compound ([1]; Breast MDA-N CL5012): 2; classification of cell line as Low(1), Medium(2), High(3) sensitivity to compound ([1]; CNS SF-268 CL12014): 2; classification of cell line as Low(1), Medium(2), High(3) sensitivity to compound ([1]; CNS SF-295 CL12015): 2; classification of cell line as Low(1), Medium(2), High(3) sensitivity to compound ([1]; CNS SF-539 CL12016): 2; classification of cell line as Low(1), Medium(2), High(3) sensitivity to compound ([1]; CNS SNB-19 CL12002): 2; classification of cell line as Low(1), Medium(2), High(3) sensitivity to compound ([1]; CNS SNB-75(I) CL12005): 2; classification of cell line as Low(1), Medium(2), High(3) sensitivity to compound ([1]; CNS U251(I) CL12009): 2; classification of cell line as Low(1), Medium(2), High(3) sensitivity to compound ([1]; Colon COLO-250 CL4010): 2; classification of cell line as Low(1), Medium(2), High(3) sensitivity to compound ([1]; Colon HCT-15 CL4015): 1; classification of cell line as Low(1), Medium(2), High(3) sensitivity to compound ([1]; Colon HT29(I) CL4001): 2; classification of cell line as Low(1), Medium(2), High(3) sensitivity to compound ([1]; Colon KM12 CL4017): 2; classification of cell line as Low(1), Medium(2), High(3) sensitivity to compound ([1]; Leukemia CCRF-CEM(I) CL7003): 2; classification of cell line as Low(1), Medium(2), High(3) sensitivity to compound ([1]; Leukemia K562(I) CL7005): 2; classification of cell line as Low(1), Medium(2), High(3) sensitivity to compound ([1]; Leukemia RPMI-8226(I) CL7010): 2; classification of cell line as Low(1), Medium(2), High(3) sensitivity to compound ([1]; Leukemia SR CL7019): 3; classification of cell line as Low(1), Medium(2), High(3) sensitivity to compound ([1]; Melanoma LOX IMVI CL10001): 2; classification of cell line as Low(1), Medium(2), High(3) sensitivity to compound ([1]; Melanoma M14 CL10014): 2; classification of cell line as Low(1), Medium(2), High(3) sensitivity to compound ([1]; Melanoma MALME-3M CL10002): 2; classification of cell line as Low(1), Medium(2), High(3) sensitivity to compound ([1]; Melanoma SK-MEL-28 CL10008): 1; sensitivity classification Low(1)/Medium(2)/High(3) ([1]; NSCLC NCI-H23(I) CL1001): 2; sensitivity classification Low(1)/Medium(2)/High(3) ([1]; NSCLC NCI-H522 CL1003): 2; sensitivity classification Low(1)/Medium(2)/High(3) ([1]; Ovarian IGROV1 CL6010): 2; sensitivity classification Low(1)/Medium(2)/High(3) ([1]; Ovarian OVCAR-3 CL6001): 2; sensitivity classification Low(1)/Medium(2)/High(3) ([1]; Ovarian OVCAR-4 CL6002): 2; sensitivity classification Low(1)/Medium(2)/High(3) ([1]; Ovarian OVCAR-8 CL6005): 2; sensitivity classification Low(1)/Medium(2)/High(3) ([1]; Ovarian SK-OV-3 CL6011): 2; sensitivity classification Low(1)/Medium(2)/High(3) ([1]; Prostate DU-145 CL11003): 2; sensitivity classification Low(1)/Medium(2)/High(3) ([1]; Prostate PC-3(I) CL11001): 2; sensitivity classification Low(1)/Medium(2)/High(3) ([1]; Renal A498 CL9013): 2; sensitivity classification Low(1)/Medium(2)/High(3) ([1]; Renal SN12C CL9008): 2; sensitivity classification Low(1)/Medium(2)/High(3) ([1]; Renal TK10 CL9024): 1; sensitivity classification Low(1)/Medium(2)/High(3) ([1]; Renal UO-31 CL9004): 1; −Log (GI50) ([2]; CNS SF-268 CL12014): 7.3; −Log (GI50) ([2]; CNS U251(I) CL12009): 7.6; −Log (GI50) ([2]; Colon HT29(I) CL4001): 7.5; −Log (GI50) ([2]; Melanoma UACC-62 CL10020): 7.6; −Log (GI50) ([2]; NSCLC HOP-92 CL1029): 7.4; −Log (GI50) ([2]; Ovarian SK-OV-3 CL6011): 7.3; −Log (GI50) ([2]; Prostate DU-145 CL11003): 7.6

Source: patent US20030129629A1, “Methods and compositions for the identification, assessment, prevention, and therapy of human cancers” (Millennium Pharmaceuticals, Inc., priority 2000, published 2003)
